From patent publication US20090253719A1, “CRYSTALLINE SALT FORMS OF ANTIFOLATE COMPOUNDS AND METHODS OF MANUFACTURING THEREOF” (Chelsea Therapeutics, Inc., priority 2008, published 2009)
pEC50: −log10 of the molar value. Each block holds one molecule with its values, some of them ahead of it.

What was measured:
[1] = Procedure: A salt screen of this compound was conducted with various pharmaceutically acceptable counterions to analyze aqueous solubility of the formed salts. Formed solids suspected of forming salts were analyzed by X-ray powder diffraction (XRPD).
[2] = system: CCRF-CEM cells; assay: Growth inhibition of CCRF-CEM cells, continuous (120 hr) drug exposure; type: cell-based; settings: Homo sapiens, continuous 120 hr exposure
Procedure: The human T-lymphoblastic leukemia cell line CCRF-CEM (described in Foley G F, et al., Cancer 1965; 18:522-9) was cultured as described in McCloskey D E, et al., J Biol Chem 1991; 266:6181-7 (both of which are incorporated herein by reference in their entirety) and verified to be negative for Mycoplasma contamination (Mycoplasma Plus PCR primers, Stratagene, La Jolla, Calif.).

[3] = Plasma concentration after oral L- or D-CH-1504 in non-fasted female Lewis rats; type: in vivo
Procedure: L- or D-CH-1504 was administered once orally to non-fasted female Lewis rats at a dose of 10 mg/kg (vehicle: 0.11% carboxymethylcellulose/0.45% TWEEN 80, formulation: suspension). About 750 μL of blood was collected from the jugular vein at 1 and 3 hours after administration. And then, whole of blood was collected from the femoral vein under diethyl ether anesthesia at 6 hours after administration. The collected blood was immediately centrifuged to obtain a plasma sample. L- and D-CH-1504 were extracted from the plasma by solid-phase extraction and were then determined with a LC/MS/MS.

[4] = Hygroscopicity study (storage at controlled relative humidity); type: physicochemical; settings: 75% relative humidity for five days
Excerpt: Hygroscopicity and approximate solubility in aqueous and buffered solutions of ammonium, besylate, calcium, esylate, sulfate, HCl, mesylate, napsylate, potassium, disodium, and tosylate salts were compared. In the hygroscopicity study, the salts were subjected to 75% relative humidity for five days.
An amorphous form was also generated. […] As described above, disodium salt Form A was a crystalline solid obtained using a water/IPA system or a water/acetone system. […] Heating was continued to achieve a temperature of 90° C. Crystallinity was not regained upon cooling to ambient.

solubility of free acid form [1]: poor solubility
pEC50 [2]: 8.07
isomerization in vivo ([3]; by 6 hours after administration of each enantiomer, all samples): could not be confirmed
SMILES: C=C(CC(NC(=O)c1ccc(CCc2ccc3nc(N)nc(N)c3c2)cc1)C(=O)O)C(=O)O (racemic) [CH-1504, 2-{4-[2-(2,4-diamino-quinazolin-6-yl)-ethyl]-benzoylamino}-4-methylene-pentanedioic acid]

pEC50 [2]: 7.54
Plasma conc. of D-CH-1504 ([3]; 1 h after 10 mg/kg oral, non-fasted female Lewis rats, individual animals): 11.0 ng/mL
concentration at 3 h ([3]; female, Lewis, rat, plasma, oral, 10 mg/kg, 3 h after 10 mg/kg oral, non-fasted female Lewis rats, individual animals, read-out: Plasma conc. of D-CH-1504): 14.3 ng/mL
concentration at 6 h ([3]; female, Lewis, rat, plasma, oral, 10 mg/kg, 6 h after 10 mg/kg oral, non-fasted female Lewis rats, individual animals, read-out: Plasma conc. of D-CH-1504): 8.34 ng/mL
SMILES: C=C(C[C@@H](NC(=O)c1ccc(CCc2ccc3nc(N)nc(N)c3c2)cc1)C(=O)O)C(=O)O [D-CH-1504]

pEC50 [2]: 8.21
SMILES: C=C(C[C@H](NC(=O)c1ccc(CCc2ccc3nc(N)nc(N)c3c2)cc1)C(=O)O)C(=O)O [L-CH-1504, (S)-2-{4-[2-(2,4-diamino-quinazolin-6-yl)-ethyl]-benzoylamino}-4-methylene-pentanedioic acid]

pEC50 [2]: 7.82
SMILES: CN(Cc1cnc2nc(N)nc(N)c2n1)c1ccc(C(=O)NC(CCC(=O)O)C(=O)O)cc1 (stereo not shown) [MTX, methotrexate, reference compound]

hygroscopicity study outcome [4]: remained unchanged
SMILES: C=C(CC(NC(=O)c1ccc(CCc2ccc3nc(N)nc(N)c3c2)cc1)C(=O)O)C(=O)O.O=S(=O)(O)c1ccc2ccccc2c1 (stereo not shown) [napsylate salt]
